{
  "source": "patent US20240358659A1",
  "about": "“Uses of Propranolol for Managing Viral Infections” (Emory University, priority 2021, published 2024)",
  "key": {"SARS-CoV-2 [1]": {"test_system": "SARS-CoV-2", "experiment": "viral load reduction assay in human lung epithelial (Calu) cells (RT-qPCR of released genome copies)", "assay_type": "cell-based", "conditions": "MOI 1, 150 uM, 16 h pi"}, "SARS-CoV-2 [2]": {"test_system": "SARS-CoV-2", "experiment": "time of addition assay in Vero cells, plaque assay", "assay_type": "cell-based", "conditions": "infectious particles by plaque assay at 16 h pi"}, "SARS-CoV-2 [3]": {"test_system": "SARS-CoV-2", "conditions": "incubation of SARS-CoV-2 with compound for 1 hr at 37° C., plaque assay"}, "SARS-CoV-2 [4]": {"test_system": "SARS-CoV-2", "experiment": "viral load reduction assay in Vero E6 cells (RT-qPCR of released genome copies)", "assay_type": "cell-based"}},
  "data": [
    {"smiles": "CC(C)NC[C@@H](O)COc1cccc2ccccc12", "note": "[R-propranolol, (R)-(+)-1-(isopropylamino)-3-(naphthalen-1-yloxy)propan-2-ol]", "values": [
      {"measurement": "reduction in extracellular SARS-CoV-2 genome copies", "setting": "SARS-CoV-2 [1]", "result": "about 1.5 log"},
      {"measurement": "reduction of viral load by time of addition", "setting": "SARS-CoV-2 [2]", "result": "highest reduction of viral load upon pre-treatment"},
      {"measurement": "reduction of infectivity of virus particles (virucidal activity)", "setting": "SARS-CoV-2 [3]", "result": "does not reduce infectivity of virus particles"},
      {"measurement": "efficacy in viral load reduction compared with remdesivir", "setting": "SARS-CoV-2 [4]; 25 uM", "result": "approximately the same efficacy as remdesivir"},
      {"measurement": "reduction in extracellular SARS-CoV-2 genome copies", "setting": "SARS-CoV-2 [4]; MOI 1, 50 uM, 16 h post-infection", "result": "~2.5", "unit": "log"}
    ]}
  ]
}
